Each structure is given as a SMILES string. pIC50: −log10 of the molar value.

The target of this assay is Beta-3 Adrenergic Receptor (Homo sapiens (Human), UniProt P13945). As to the kind of experiment: HTRF cAMP antagonist assay (IC50 determination). In kind it is cell-based. The settings on record: CHO-K1 cells stably expressing recombinant receptor; antagonism of isoproterenol at EC90; cAMP readout. The gist of the method:
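CHO-K1 cells stably expressing receptor, 1500 cells/well, preincubated briefly with 10-point 5-fold compound series (top final typically 10 or 100 μM) in PBS with 1 mM IBMX, then challenged with isoproterenol at EC90 for 1 h at room temperature. cAMP read by HTRF against on-plate standard curve; IC50 from dose-response.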
(In general: TR-FRET usually uses a lanthanide donor and a delayed reading to cut background.)

Beta-3 Adrenergic Receptor, sequence (P13945 whole entry, species assumed): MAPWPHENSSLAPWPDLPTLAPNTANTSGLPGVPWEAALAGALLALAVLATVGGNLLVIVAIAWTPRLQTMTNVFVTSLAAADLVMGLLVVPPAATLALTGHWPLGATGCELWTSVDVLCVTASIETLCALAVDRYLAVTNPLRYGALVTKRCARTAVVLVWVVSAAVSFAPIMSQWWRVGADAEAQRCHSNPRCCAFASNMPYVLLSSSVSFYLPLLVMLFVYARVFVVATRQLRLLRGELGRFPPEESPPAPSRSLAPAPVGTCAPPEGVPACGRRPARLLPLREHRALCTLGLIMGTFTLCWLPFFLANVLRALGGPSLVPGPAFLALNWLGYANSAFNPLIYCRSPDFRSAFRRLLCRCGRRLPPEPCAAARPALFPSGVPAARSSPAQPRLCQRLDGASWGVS

Usually pIC50 stands for −log10 of the IC50, conventionally taken in molar units. Take `Cc1cc(=O)[nH]c2ccc(S(=O)(=O)N3CCC4(CC3)C[C@@H](NC[C@H](O)COc3cccc(S(=O)(=O)C5(CO)CC5)c3)CO4)cc12` [Compound 236, 6-((R)-3-((S)-2-hydroxy-3-(3-(1-(hydroxymethyl)cyclopropylsulfonyl)phenoxy)propylamino)-1-oxa-8-azaspiro[4.5]decan-8-ylsulfonyl)-4-methylquinolin-2(1H)-one]: the pIC50 is 6.43.

With `CCOc1ccc(S(=O)(=O)N2CCC3(CC2)C[C@H](NC[C@H](O)COc2cccc(S(=O)(=O)C4(CO)CC4)c2)CO3)cc1-c1ccc(CN)cc1` [Compound 237, (S)-1-((S)-8-(4′-(aminomethyl)-6-ethoxybiphenyl-3-ylsulfonyl)-1-oxa-8-azaspiro[4.5]decan-3-ylamino)-3-(3-(1-(hydroxymethyl)cyclopropylsulfonyl)phenoxy)propan-2-ol], the negative logarithm of the IC50 (pIC50) was 7.09.

`COc1ccc(S(=O)(=O)N2CCC3(CC2)C[C@H](NC[C@H](O)COc2cccc(S(=O)(=O)C(F)(F)CO)c2)CO3)cc1-c1ccc(CN)cc1` [Compound 238, (S)-1-((S)-8-(4′-(aminomethyl)-6-methoxybiphenyl-3-ylsulfonyl)-1-oxa-8-azaspiro[4.5]decan-3-ylamino)-3-(3-(1,1-difluoro-2-hydroxyethylsulfonyl)phenoxy)propan-2-ol]: the negative logarithm of the IC50 (pIC50) is 7.64.

Take `COc1ccc(S(=O)(=O)N2CCC3(CC2)C[C@H](NC[C@H](O)COc2cccc(S(=O)(=O)C(F)(F)CO)c2)CO3)cc1-c1ccc(C2(N)CC2)cc1` [Compound 239, (S)-1-((S)-8-(4′-(1-aminocyclopropyl)-6-methoxybiphenyl-3-ylsulfonyl)-1-oxa-8-azaspiro[4.5]decan-3-ylamino)-3-(3-(1,1-difluoro-2-hydroxyethylsulfonyl)phenoxy)propan-2-ol]: the negative-log IC50 (pIC50) is 7.51.

With `CC(C)(C)NCc1ccc(-c2cccc(S(=O)(=O)N3CCC4(CC3)C[C@H](NC[C@H](O)COc3cccc(S(=O)(=O)C5(CO)CC5)c3)CO4)c2)cc1` [Compound 240, (S)-1-((S)-8-(4′-((tert-butylamino)methyl)biphenyl-3-ylsulfonyl)-1-oxa-8-azaspiro[4.5]decan-3-ylamino)-3-(3-(1-(hydroxymethyl)cyclopropylsulfonyl)phenoxy)propan-2-ol], the pIC50 is 7.50. Consider `CCC(C)(C)NCc1ccc(-c2cccc(S(=O)(=O)N3CCC4(CC3)C[C@H](NC[C@H](O)COc3cccc(S(=O)(=O)C5(CO)CC5)c3)CO4)c2)cc1` [Compound 241, (S)-1-(3-(1-(hydroxymethyl)cyclopropylsulfonyl)phenoxy)-3-((S)-8-(4′-((tert-pentylamino)methyl)biphenyl-3-ylsulfonyl)-1-oxa-8-azaspiro[4.5]decan-3-ylamino)propan-2-ol], for which the pIC50 is 7.68. Take `O=S(=O)(c1cccc(-c2ccc(CNCC(F)(F)F)cc2)c1)N1CCC2(CC1)C[C@H](NC[C@H](O)COc1cccc(S(=O)(=O)C3(CO)CC3)c1)CO2` [Compound 242, (S)-1-(3-(1-(hydroxymethyl)cyclopropylsulfonyl)phenoxy)-3-((S)-8-(4′-((2,2,2-trifluoroethylamino)methyl)biphenyl-3-ylsulfonyl)-1-oxa-8-azaspiro[4.5]decan-3-ylamino)propan-2-ol]: the negative logarithm of the IC50 (pIC50) is 7.45. In the case of `O=S(=O)(c1cccc(-c2ccc(CN3CCC3)cc2)c1)N1CCC2(CC1)C[C@H](NC[C@H](O)COc1cccc(S(=O)(=O)C3(CO)CC3)c1)CO2` [Compound 243, (S)-1-((S)-8-(4′-(azetidin-1-ylmethyl)biphenyl-3-ylsulfonyl)-1-oxa-8-azaspiro[4.5]decan-3-ylamino)-3-(3-(1-(hydroxymethyl)cyclopropylsulfonyl)phenoxy)propan-2-ol], the pIC50 is 7.46. For `CCCNCc1ccc(-c2cccc(S(=O)(=O)N3CCC4(CC3)C[C@H](NC[C@H](O)COc3cccc(S(=O)(=O)C5(CO)CC5)c3)CO4)c2)cc1` [Compound 244, (S)-1-(3-(1-(hydroxymethyl)cyclopropylsulfonyl)phenoxy)-3-((S)-8-(4′-((propylamino)methyl)biphenyl-3-ylsulfonyl)-1-oxa-8-azaspiro[4.5]decan-3-ylamino)propan-2-ol], the pIC50 was 7.56. Take `CCCCNCc1ccc(-c2cccc(S(=O)(=O)N3CCC4(CC3)C[C@H](NC[C@H](O)COc3cccc(S(=O)(=O)C5(CO)CC5)c3)CO4)c2)cc1` [Compound 245, (S)-1-((S)-8-(4′-((butylamino)methyl)biphenyl-3-ylsulfonyl)-1-oxa-8-azaspiro[4.5]decan-3-ylamino)-3-(3-(1-(hydroxymethyl)cyclopropylsulfonyl)phenoxy)propan-2-ol]: the pIC50 was 7.74. On to `O=S(=O)(c1cccc(-c2ccc(CN3CCOCC3)cc2)c1)N1CCC2(CC1)C[C@H](NC[C@H](O)COc1cccc(S(=O)(=O)C3(CO)CC3)c1)CO2` [Compound 246, (S)-1-(3-(1-(hydroxymethyl)cyclopropylsulfonyl)phenoxy)-3-((S)-8-(4′-(morpholinomethyl)biphenyl-3-ylsulfonyl)-1-oxa-8-azaspiro[4.5]decan-3-ylamino)propan-2-ol], for which the pIC50 is 7.32. Consider `COCCNCc1ccc(-c2cccc(S(=O)(=O)N3CCC4(CC3)C[C@H](NC[C@H](O)COc3cccc(S(=O)(=O)C5(CO)CC5)c3)CO4)c2)cc1` [Compound 247, (S)-1-(3-(1-(hydroxymethyl)cyclopropylsulfonyl)phenoxy)-3-((S)-8-(4′-((2-methoxyethylamino)methyl)biphenyl-3-ylsulfonyl)-1-oxa-8-azaspiro[4.5]decan-3-ylamino)propan-2-ol], for which the pIC50 is 7.48. Take `O=S(=O)(CCO)c1cc(F)cc(OC[C@@H](O)CN[C@H]2COC3(CCN(S(=O)(=O)c4cnc5ccccc5c4)CC3)C2)c1` [Compound 248, (S)-1-(3-fluoro-5-(2-hydroxyethylsulfonyl)phenoxy)-3-((R)-8-(quinolin-3-ylsulfonyl)-1-oxa-8-azaspiro[4.5]decan-3-ylamino)propan-2-ol]: the negative logarithm of the IC50 (pIC50) is 7.14. For `O=S(=O)(CCO)c1cc(F)cc(OC[C@@H](O)CN[C@H]2COC3(CCN(S(=O)(=O)c4ccc5ncccc5c4)CC3)C2)c1` [Compound 249, (S)-1-(3-fluoro-5-(2-hydroxyethylsulfonyl)phenoxy)-3-((R)-8-(quinolin-6-ylsulfonyl)-1-oxa-8-azaspiro[4.5]decan-3-ylamino)propan-2-ol] the value was 6.65. For the compound `Cc1c(S(=O)(=O)N2CCC3(CC2)C[C@H](NC[C@H](O)COc2cccc(S(=O)(=O)C4(CO)CC4)c2)CO3)cnc2c1N(C)CCO2` [Compound 250, (S)-1-((S)-8-(1,8-dimethyl-2,3-dihydro-1H-pyrido[2,3-b][1,4]oxazin-7-ylsulfonyl)-1-oxa-8-azaspiro[4.5]decan-3-ylamino)-3-(3-(1-(hydroxymethyl)cyclopropylsulfonyl)phenoxy)propan-2-ol], the negative logarithm of the IC50 (pIC50) is 6.47. Take `CCOc1ccc(-c2ccc(C(C)(C)N)cc2)cc1S(=O)(=O)N1CCC2(CC1)CC(NC[C@H](O)COc1cccc(S(=O)(=O)C3(CO)CC3)c1)CO2` (some centres unmarked) [Compound 251]: the pIC50 is 7.29.

Consider `CCOc1ccc(-c2ccc(C3(N)CC3)cc2)cc1S(=O)(=O)N1CCC2(CC1)C[C@H](NC[C@H](O)COc1cccc(S(=O)(=O)C3CC3)c1)CO2` [Compound 252], for which the negative logarithm of the IC50 (pIC50) was 7.53. With `COc1ccc(S(=O)(=O)N2CCC3(CC2)C[C@H](NC[C@H](O)COc2cccc(S(=O)(=O)C4CC4)c2)CO3)cc1-c1ccc(C2(N)CC2)cc1` [Compound 253, (S)-1-((S)-8-(4′-(1-aminocyclopropyl)-6-methoxybiphenyl-3-ylsulfonyl)-1-oxa-8-azaspiro[4.5]decan-3-ylamino)-3-(3-(cyclopropylsulfonyl)phenoxy)propan-2-ol], the pIC50 was 7.54.

Take `CCOc1ccc(-c2ccc(C3(N)CC3)cc2)cc1S(=O)(=O)N1CCC2(CC1)C[C@@H](NC[C@H](O)COc1cccc(S(=O)(=O)C3CC3)c1)CO2` [Compound 254, (S)-1-((R)-8-(4′-(1-aminocyclopropyl)-4-ethoxybiphenyl-3-ylsulfonyl)-1-oxa-8-azaspiro[4.5]decan-3-ylamino)-3-(3-(cyclopropylsulfonyl)phenoxy)propan-2-ol]: the pIC50 is 7.38. In the case of `COc1ccc(S(=O)(=O)N2CCC3(CC2)C[C@@H](NC[C@H](O)COc2cccc(S(=O)(=O)C4CC4)c2)CO3)cc1-c1ccc(C2(N)CC2)cc1` [Compound 255, (S)-1-((R)-8-(4′-(1-aminocyclopropyl)-6-methoxybiphenyl-3-ylsulfonyl)-1-oxa-8-azaspiro[4.5]decan-3-ylamino)-3-(3-(cyclopropylsulfonyl)phenoxy)propan-2-ol] it was 7.55. In the case of `CCOc1ccc(-c2ccc(C3(N)CC3)cc2)cc1S(=O)(=O)N1CCC2(CC1)C[C@H](NC[C@H](O)COc1cccc(S(=O)(=O)CC)c1)CO2` [Compound 256, (S)-1-((S)-8-(4′-(1-aminocyclopropyl)-4-ethoxybiphenyl-3-ylsulfonyl)-1-oxa-8-azaspiro[4.5]decan-3-ylamino)-3-(3-(ethylsulfonyl)phenoxy)propan-2-ol] it was 7.49; in that of `CCOc1ccc(-c2ccc(C3(N)CC3)cc2)cc1S(=O)(=O)N1CCC2(CC1)C[C@@H](NC[C@H](O)COc1cccc(S(=O)(=O)CC)c1)CO2` [Compound 257, (S)-1-((R)-8-(4′-(1-aminocyclopropyl)-4-ethoxybiphenyl-3-ylsulfonyl)-1-oxa-8-azaspiro[4.5]decan-3-ylamino)-3-(3-(ethylsulfonyl)phenoxy)propan-2-ol], 7.42; in that of `CCS(=O)(=O)c1cccc(OC[C@@H](O)CN[C@H]2COC3(CCN(S(=O)(=O)c4ccc(OC)c(-c5ccc(C6(N)CC6)cc5)c4)CC3)C2)c1` [Compound 258, (S)-1-((R)-8-(4′-(1-aminocyclopropyl)-6-methoxybiphenyl-3-ylsulfonyl)-1-oxa-8-azaspiro[4.5]decan-3-ylamino)-3-(3-(ethylsulfonyl)phenoxy)propan-2-ol], 7.56.

The values are drawn from patent publication US10927123B2, “Modulators of the beta-3 adrenergic receptor useful for the treatment or prevention of disorders related thereto” (Arena Pharmaceuticals, Inc., priority 2016, dated 2021).
